Results taken from paper PMC10825133, “Repurposing proteasome inhibitors for improved treatment of triple-negative breast cancer” (Cell Death Discovery, 2024).
Like-named read-outs stand apart in the source and are kept apart here.

Tests used:
Test in all cases: Resazurin-based cell viability assay, monotherapy drug screen
Design in all cases: species or system human; AUC: scale not given here
[1] = test system: MCF-7 cells; conditions: for AUC: area under the dose response curve, 24 h; for GRmax: drug efficacy at highest tested dose (<0 cytotoxic, 0 cytostatic, >0 partial growth inhibition)
Protocol: (§1) Eighteen pharmaceutical compounds were purchased from Selleckchem. […] The stock solutions were stored at -80°C. […] New drug plates were prepared for each drug screen.
(§2) To determine the optimal seeding density and ensure that the cells were in the exponential phase during the duration of the experiment (approx. 52h), each cell line (BT-549, CAL-148, HCC1806, HCC38, HCC70, MCF-10A, MCF-7, MDA-MB-436, MDA-MB-453, and MDA-MB-468) was seeded at different concentrations (1000 to 16000 cells) per 96-well, as previously described. Cell viability was measured daily (day 0 [plating day] to day 4) using 0.2 mg/ml resazurin solution prepared from resazurin sodium salt (Fisher Scientific) dissolved in sterile 1xPBS (ThermoFisher Scientific). Before use, the resazurin solution was brought to RT before 10 µl (10% of cell medium volume) was added to each 96-well and incubated for 4h at 37°C. The absorbance was measured with a 560 nm excitation filter and a 615 nm emission filter in a Wallac 1420 VICTOR2™ microplate reader (Perkin Elmer). The slope of the curve was used to determine the optimal seeding density, i.e., the highest seeding density with linear growth between days 1 and 3.

[2] = test system: HCC38 cells; conditions: for AUC: area under the dose response curve, 24 h; for GRmax: drug efficacy at highest tested dose (<0 cytotoxic, 0 cytostatic, >0 partial growth inhibition)
Protocol: as §1, §2

[3] = test system: MDA-MB-453 cells; conditions: for AUC: area under the dose response curve, 24 h
Protocol: as §1, §2

[4] = test system: MDA-MB-436 cells; conditions: for AUC: area under the dose response curve, 24 h; for GRmax: drug efficacy at highest tested dose (<0 cytotoxic, 0 cytostatic, >0 partial growth inhibition)
Protocol: as §1, §2

[5] = test system: MDA-MB-468 cells; conditions: for AUC: area under the dose response curve, 24 h
Protocol: as §1, §2

[6] = test system: HCC70 cells; conditions: for AUC: area under the dose response curve, 24 h; for GRmax: drug efficacy at highest tested dose (<0 cytotoxic, 0 cytostatic, >0 partial growth inhibition)
Protocol: as §1, §2

[7] = test system: MCF-10A cells; conditions: for AUC: area under the dose response curve
Protocol: as §1, §2

[8] = test system: BT-549 cells; conditions: for AUC: area under the dose response curve, 24 h; for GRmax: drug efficacy at highest tested dose (<0 cytotoxic, 0 cytostatic, >0 partial growth inhibition)
Protocol: as §1, §2

[9] = test system: HCC1806 cells; conditions: for AUC: area under the dose response curve, 24 h; for GRmax: drug efficacy at highest tested dose (<0 cytotoxic, 0 cytostatic, >0 partial growth inhibition)
Protocol: as §1, §2

[10] = Homo sapiens, MCF7, MCF-7, growth rate inhibition concentration at GR(c) = 0.5, 24 h, read-out: GR50 (the source's name)
[11] = Homo sapiens, HCC38, growth rate inhibition concentration at GR(c) = 0.5, 24 h, read-out: GR50 (the source's name)
[12] = Homo sapiens, MDA-MB-436, growth rate inhibition concentration at GR(c) = 0.5, 24 h, read-out: GR50 (the source's name)
[13] = Homo sapiens, 24 h drug treatment, read-out: IC50
[14] = Homo sapiens, growth rate inhibition concentration at GR(c) = 0.5, 24 h, read-out: GR50 (the source's name)

CC1=C(O)C(=O)C=C2C1=CC=C1[C@@]2(C)CC[C@@]2(C)[C@@H]3C[C@](C)(C(=O)O)CC[C@]3(C)CC[C@]12C [Celastrol]
IC50 ([1]; Homo sapiens, MCF7, 24 h): 2.8 µM | IC50 ([1]; Homo sapiens, MCF7, 24 h, read-out: GR50 (µM)): 3.3 µM | AUC ([1]; MCF-7): 0.89 | GRmax ([1]; MCF-7): −0.30 | AUC ([2]; HCC38): 0.79 | GRmax ([2]; HCC38): −0.96 | IC50 ([2]; Homo sapiens, HCC38, 24 h): 1.4 µM | IC50 ([2]; Homo sapiens, HCC38, 24 h, read-out: GR50 (µM)): 1.2 µM | IC50 ([3]; Homo sapiens, MDA-MB-453, 24 h): 3.7 µM | IC50 ([3]; Homo sapiens, MDA-MB-453, 24 h, read-out: GR50 (µM)): 3.4 µM | AUC ([3]; MDA-MB-453): 0.87 | IC50 ([4]; Homo sapiens, MDA-MB-436, 24 h): 3.2 µM | IC50 ([4]; Homo sapiens, MDA-MB-436, 24 h, read-out: GR50 (µM)): 2.4 µM | AUC ([4]; MDA-MB-436): 0.85 | GRmax ([4]; MDA-MB-436): −0.63 | IC50 ([5]; Homo sapiens, MDA-MB-468, 24 h): 1 µM | IC50 ([5]; Homo sapiens, MDA-MB-468, 24 h, read-out: GR50 (µM)): 0.75 µM | AUC ([5]; MDA-MB-468): 0.75 | AUC ([6]; HCC70): 0.82 | GRmax ([6]; HCC70): −0.98 | IC50 ([6]; Homo sapiens, HCC70, 24 h): 1.8 µM | IC50 ([6]; Homo sapiens, HCC70, 24 h, read-out: GR50 (µM)): 1.2 µM | IC50 ([7]; Homo sapiens, 24 h): 1.6 µM | IC50 ([7]; Homo sapiens, 24 h, read-out: GR50 (µM)): 1.8 µM | AUC ([7]; 24 h): 0.81 | AUC ([8]; BT-549): 0.82 | GRmax ([8]; BT-549): −0.51 | IC50 ([8]; Homo sapiens, BT-549, 24 h): 1.3 µM | IC50 ([8]; Homo sapiens, BT-549, 24 h, read-out: GR50 (µM)): 1.5 µM | AUC ([9]; HCC1806): 0.81 | GRmax ([9]; HCC1806): −0.82 | IC50 ([9]; Homo sapiens, HCC1806, 24 h): 2.1 µM | IC50 ([9]; Homo sapiens, HCC1806, 24 h, read-out: GR50 (µM)): 3.4 µM

N.N.[Cl][Pt][Cl] [Cisplatin]
IC50 ([1]; MCF-7, 24 h drug treatment, read-out: IC50): 0.16 µM | AUC ([1]; MCF-7): 0.66 | GRmax ([1]; MCF-7): −0.96 | IC50 ([1]; MCF-7, growth rate inhibition concentration at GR(c) = 0.5, 24 h, read-out: GR50 (the source's name)): 0.015 µM | IC50 ([2]; HCC38, 24 h drug treatment, read-out: IC50): 0.03 µM | AUC ([2]; HCC38): 0.45 | GRmax ([2]; HCC38): −0.67 | IC50 ([2]; HCC38, growth rate inhibition concentration at GR(c) = 0.5, 24 h, read-out: GR50 (the source's name)): 0.019 µM | IC50 ([3]; MDA-MB-453, 24 h drug treatment, read-out: IC50): 0.24 µM | AUC ([3]; MDA-MB-453): 0.75 | GRmax ([3]; MDA-MB-453, drug efficacy at highest tested dose (<0 cytotoxic, 0 cytostatic, >0 partial growth inhibition)): 0.25 | IC50 ([3]; MDA-MB-453, growth rate inhibition concentration at GR(c) = 0.5, 24 h, read-out: GR50 (the source's name)): 0.095 µM | IC50 ([4]; MDA-MB-436, 24 h drug treatment, read-out: IC50): 0.064 µM | AUC ([4]; MDA-MB-436): 0.62 | GRmax ([4]; MDA-MB-436): 0.17 | IC50 ([4]; MDA-MB-436, growth rate inhibition concentration at GR(c) = 0.5, 24 h, read-out: GR50 (the source's name)): 0.043 µM | IC50 ([5]; MDA-MB-468, 24 h drug treatment, read-out: IC50): 0.015 µM | AUC ([5]; MDA-MB-468): 0.37 | GRmax ([5]; MDA-MB-468, drug efficacy at highest tested dose (<0 cytotoxic, 0 cytostatic, >0 partial growth inhibition)): −0.46 | IC50 ([5]; MDA-MB-468, growth rate inhibition concentration at GR(c) = 0.5, 24 h, read-out: GR50 (the source's name)): 0.0075 µM | IC50 ([6]; HCC70, 24 h drug treatment, read-out: IC50): 0.022 µM | AUC ([6]; HCC70): 0.37 | GRmax ([6]; HCC70): −0.89 | IC50 ([6]; HCC70, growth rate inhibition concentration at GR(c) = 0.5, 24 h, read-out: GR50 (the source's name)): 0.015 µM | IC50 ([7]; 24 h drug treatment, read-out: IC50): 0.027 µM | AUC ([7]; 24 h): 0.42 | GRmax ([7]; drug efficacy at highest tested dose (<0 cytotoxic, 0 cytostatic, >0 partial growth inhibition)): −0.32 | IC50 ([7]; growth rate inhibition concentration at GR(c) = 0.5, 24 h, read-out: GR50 (the source's name)): 0.028 µM | IC50 ([8]; BT-549, 24 h drug treatment, read-out: IC50): 0.053 µM | AUC ([8]; BT-549): 0.57 | GRmax ([8]; BT-549): −0.16 | IC50 ([8]; BT-549, growth rate inhibition concentration at GR(c) = 0.5, 24 h, read-out: GR50 (the source's name)): 0.035 µM | IC50 ([9]; HCC1806, 24 h drug treatment, read-out: IC50): 0.048 µM | AUC ([9]; HCC1806): 0.48 | GRmax ([9]; HCC1806): −0.72 | IC50 ([9]; HCC1806, growth rate inhibition concentration at GR(c) = 0.5, 24 h, read-out: GR50 (the source's name)): 0.042 µM

CC(C)C[C@H](NC(=O)[C@@H](NC(=O)c1cccc(-c2ccccc2)n1)[C@@H](C)O)B(O)O [Delanzomib]
IC50 [1, 10]: 0.037 µM | AUC ([1]; MCF-7): 0.77 | GRmax ([1]; MCF-7): −0.28 | AUC ([2]; HCC38): 0.42 | GRmax ([2]; HCC38): −0.97 | IC50 ([2]; Homo sapiens, HCC38, 24 h drug treatment, read-out: IC50): 0.012 µM | IC50 [2, 11]: 0.0082 µM | IC50 ([3]; Homo sapiens, MDA-MB-453, growth rate inhibition concentration at GR(c) = 0.5, 24 h, read-out: GR50 (the source's name)): 0.027 µM | AUC ([3]; MDA-MB-453): 0.76 | IC50 [4, 12]: 0.029 µM | AUC ([4]; MDA-MB-436): 0.79 | GRmax ([4]; MDA-MB-436): −0.84 | IC50 ([5]; Homo sapiens, MDA-MB-468, 24 h drug treatment, read-out: IC50): 0.077 µM | IC50 ([5]; Homo sapiens, MDA-MB-468, growth rate inhibition concentration at GR(c) = 0.5, 24 h, read-out: GR50 (the source's name)): 0.011 µM | AUC ([5]; MDA-MB-468): 0.58 | AUC ([6]; HCC70): 0.75 | GRmax ([6]; HCC70): −0.36 | IC50 ([6]; Homo sapiens, HCC70, 24 h drug treatment, read-out: IC50): 3.3 µM | IC50 ([6]; Homo sapiens, HCC70, growth rate inhibition concentration at GR(c) = 0.5, 24 h, read-out: GR50 (the source's name)): 0.37 µM | IC50 [7, 13]: 0.018 µM | IC50 [7, 14]: 0.012 µM | AUC ([7]; 24 h): 0.62 | AUC ([8]; BT-549): 0.73 | GRmax ([8]; BT-549): 0.48 | AUC ([9]; HCC1806): 0.74 | GRmax ([9]; HCC1806): 0.50

CC(=O)O[C@@]12CO[C@@H]1C[C@H](O)[C@@]1(C)C(=O)[C@H](O)C3=C(C)[C@@H](OC(=O)[C@H](O)[C@@H](NC(=O)OC(C)(C)C)c4ccccc4)C[C@@](O)([C@@H](OC(=O)c4ccccc4)[C@H]21)C3(C)C [Docetaxel]
IC50 [1, 10]: 0.0065 µM | AUC ([1]; MCF-7): 0.75 | GRmax ([1]; MCF-7): −0.44 | AUC ([2]; HCC38): 0.78 | GRmax ([2]; HCC38): 0.17 | IC50 [2, 11]: 0.013 µM | AUC ([3]; MDA-MB-453): 0.87 | IC50 [4, 12]: 0.005 µM | AUC ([4]; MDA-MB-436): 0.69 | GRmax ([4]; MDA-MB-436): −0.81 | AUC ([5]; MDA-MB-468): 0.77 | AUC ([6]; HCC70): 0.83 | GRmax ([6]; HCC70): 0.72 | IC50 [7, 13]: 0.05 µM | IC50 [7, 14]: 0.009 µM | AUC ([7]; 24 h): 0.63 | AUC ([8]; BT-549): 0.79 | GRmax ([8]; BT-549): 0.61 | AUC ([9]; HCC1806): 0.64 | GRmax ([9]; HCC1806): 0.56
